In US9023844B2, “Heterocyclylpyri (mi) dinylpyrazole as fungicidals” (Bayer Intellectual Property GmbH, priority 2011, dated 2015):
Read-outs that look alike come from different tables or passages of the source.

Key:
[1] = Determination of log P values by HPLC on a reverse phase column (C18), EEC-Directive 79/831 Annex V.A8 (Methods A, B, C); format: physicochemical; details: for chromatographic logP: reverse phase C18 HPLC column
Method in brief: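 LogP was determined by C18 reverse-phase HPLC/UPLC with acetonitrile/water eluents containing formic acid. Method A used a 10–95% acetonitrile gradient over 4.25 min at 55 °C and 2.0 mL/min. Method B used 5–95% over 1.70 min at 55 °C and 2.0 mL/min, and Method C used 10–95% over 3.25 min at 40 °C and 0.8 mL/min, with MS detection.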

[2] = tested on: Venturia inaequalis; assay: Example I: Venturia test (apples) / preventive; details: 100 ppm of active ingredient, preventive spray, evaluated 10 days after inoculation
Experimental: After the spray coating has dried on, the plants are inoculated with an aqueous conidia suspension of the causal agent of apple scab (Venturia inaequalis) and then remain for 1 day in an incubation cabinet at approximately 20° C. and a relative atmospheric humidity of 100%.
The plants are then placed in a greenhouse at approximately 21° C. and a relative atmospheric humidity of approximately 90%.
The test is evaluated 10 days after the inoculation.

[3] = tested on: Fusarium nivale (var. majus); assay: Example K: Fusarium nivale (var. majus) test (wheat) / preventive; format: in vivo; details: 500 ppm of active ingredient, preventive spray, evaluated 5 days after inoculation
Experimental: After the spray coating has been dried, the plants are slightly injured by using a sandblast and afterwards they are sprayed with a conidia suspension of Fusarium nivale (var. majus).
The test is evaluated 5 days after the inoculation.

[4] = tested on: Pyrenophora teres; assay: Example D: Pyrenophora test (barley) / preventive; format: in vivo
[5] = tested on: Phytophthora infestans; format: in vivo
[6] = tested on: Septoria tritici; assay: Example J: Septoria tritici test (wheat) / preventive; format: in vivo
[7] = tested on: Puccinia recondita; assay: Example E: Puccinia test (wheat) / preventive; format: in vivo
[8] = tested on: Sphaerotheca fuliginea; assay: Example A: Sphaerotheca test (cucumber) / preventive; format: in vivo
[9] = tested on: Leptosphaeria nodorum; assay: Example C: Leptosphaeria test (wheat) / preventive; format: in vivo; details: in vivo
[10] = tested on: Pyricularia oryzae; format: in vivo
[11] = tested on: Plasmopara viticola; assay: Example H: Plasmopara test (grapevines) / preventive; format: in vivo
[12] = tested on: Fusarium graminearum; format: in vivo
[13] = tested on: Uromyces appendiculatus; assay: Example B: Uromyces test (beans) / preventive; format: in vivo; details: in vivo
[14] = tested on: DON/Acetyl-DON production by Fusarium graminearum; assay: microbe, parasite or virus in culture; format: cell-based
[15] = tested on: Fusarium graminearum; assay: microbe, parasite or virus in culture; format: cell-based; details: at 50 μM
[16] = Method A: HPLC, reverse phase C18, acetonitrile (0.1% formic acid)/water (0.09% formic acid) gradient
[17] = Method C (HPLC, reverse phase C18)

| SMILES | efficacy [2] | efficacy [3] | efficacy ([4]; in vivo) | efficacy ([5]; in vivo) | efficacy ([6]; in vivo) | efficacy ([7]; in vivo) | efficacy ([8]; in vivo) | efficacy [9] | efficacy ([10]; in vivo) | efficacy ([11]; in vivo) | efficacy ([12]; in vivo) | LogP [1, 17] | efficacy [13] | Inhibition of DON/AcDON in % ([14]; at 50 μM) | Growth inhibition of Fusarium graminearum in % [15] | other results |
| --- | --- | --- | --- | --- | --- | --- | --- | --- | --- | --- | --- | --- | --- | --- | --- | --- |
| CCC(=O)N(C(=O)C1CC1)c1cc(-c2c(-c3ccc(F)cc3)nn3c2OCCC3)ccn1 [Example 54] | 95% | 100% | 95% | 99% | 100% | 95% | 100% | 80% | 90% | 100% | 100% |  |  |  |  | LogP [1, 16]: 2.77 |
| CC(=O)Nc1cc(-c2c(-c3ccc(F)cc3)nn3c2OC[Si](C)(C)C3)ccn1 [Example 61] | 96% |  | 95% | 71% |  | 75% |  | 78% | 70% | 100% |  | 2.01 | 84% |  |  |  |
| CC(C)C(=O)Nc1cc(-c2c(-c3ccc(F)cc3)nn3c2OCCC3C)ccn1 (stereo not drawn) [Example 62] | 100% | 100% | 95% | 95% | 75% | 90% | 100% |  | 95% | 100% | 100% |  | 78% | 99% | 86% | LogP [1, 16]: 1.86 |
| CCC(=O)Nc1cc(-c2c(-c3ccc(F)cc3)nn3c2OCCC3C)ccn1 (stereo not drawn) [Example 63, N-{4-[2-(4-fluorophenyl)-7-methyl-6,7-dihydro-5H-pyrazolo[5,1-b][1,3]oxazin-3-yl]pyridin-2-yl}propanamide] | 100% | 100% |  |  |  |  |  |  |  |  |  |  |  |  |  | chromatographic logP ([1]; Method A: HPLC, reverse phase C18, acetonitrile (0.1% formic acid)/water (0.09% formic acid) gradient, read-out: LogP): 1.61; chromatographic logP ([1]; pH 2.7, values in the synthesis examples, HPLC, reverse phase C18, read-out: log P (pH 2.7)): 1.61; efficacy ([4]; 500 ppm of active ingredient, barley, preventive spray, evaluated 7-9 days after inoculation): 100%; efficacy ([5]; 100 ppm of active ingredient, tomatoes, preventive spray, evaluated 3 days after inoculation): 95%; efficacy ([6]; 500 ppm of active ingredient, wheat, preventive spray, evaluated 21 days after inoculation): 94%; efficacy ([7]; 500 ppm of active ingredient, wheat, preventive spray, evaluated 7-9 days after inoculation): 80%; efficacy ([8]; 500 ppm of active ingredient, cucumber, preventive spray, evaluated 7 days after inoculation): 95%; efficacy ([10]; 500 ppm of active ingredient, rice, preventive spray, evaluated 7 days after inoculation): 95%; efficacy ([11]; 100 ppm of active ingredient, grapevines, preventive spray, evaluated 6 days after inoculation): 95%; efficacy ([12]; 500 ppm of active ingredient, barley, preventive spray, evaluated 5 days after inoculation): 88% |
| CCC(=O)Nc1cc(-c2c(-c3ccc(F)cc3)nn3cccnc23)ccn1 [Example 79] | 96% |  | 100% | 95% |  |  | 80% |  |  | 88% |  | 1.91 |  |  |  |  |
| C[Si]1(C)COc2c(-c3ccnc(NC(=O)C4CC4)c3)c(-c3ccc(F)cc3)nn2C1 [Example 81] | 99% | 100% | 90% |  | 88% | 100% | 98% | 75% | 95% | 100% | 100% | 2.18 | 94% |  |  |  |
| CCC(=O)Nc1cc(-c2c(-c3cccs3)nn3c2OC[Si](C)(C)C3)ccn1 [Example 82] | 94% |  | 95% | 85% |  | 70% |  |  | 70% | 100% |  | 1.81 |  | 100% | 100% |  |
| CC(=O)Nc1cc(-c2c(-c3cccs3)nn3c2OC[Si](C)(C)C3)ccn1 [Example 85] | 97% | 100% | 95% | 95% | 86% | 78% |  | 90% | 90% | 97% | 71% | 1.74 |  |  |  | Inhibition of DON/AcDON in % ([14]; 50 µM): 99% |
| CC(C)C(=O)Nc1cc(-c2c(-c3cccs3)nn3c2OC[Si](C)(C)C3)ccn1 [Example 86] | 100% |  | 90% | 98% |  | 95% |  |  | 80% | 100% |  | 2.28 | 94% | 99% | 100% |  |
